Test results reported in US6391890B1, “Heterocyclic compounds” (Novo Nordisk A/S, priority 1997, dated 2002).
Counter-ions that a name gives are not always drawn.

Tests used:
[1] = system: histamine induced paw oedema; test: Histamine induced paw oedema (rat, water plethysmography); format: in vivo; conditions: 1.0 mg/kg intraperitoneally, male Sprague-Dawley rats, paw swelling 20 minutes after histamine
Experimental: I. Histamine Induced Paw Oedema The rat histamine paw oedema test was performed essentially as described by Amann et al. (Europ. J. Pharmacol. 279, 227-231, 1995). In brief 250-300 g male Sprague-Dawley rats were anaesthetized with pentobarbital sodium, and placed on a 32 degree heated table. Ten minutes later histamine (50 micoliter, 3 mg/ml) was injected in the right hind paw and 20 minutes hereafter the paw swelling was determined by water plethysmography (Ugo Basile). Test compounds were administered intraperitoneally at 15 minutes before the anaesthetics.

[2] = system: histamine induced blood glucose rise; test: Histamine induced hyperglycemia in mice; format: in vivo; conditions: 1.0 mg/kg ip 30 min before histamine icv, male NMRI mice, blood glucose at 40 min
Experimental: II. Histamine Induced Hyperglycemia in Mice
Conscious unfasted 25 g male NMRI mice are administered histamine chloride (90 nmol) icv according to the method of Nishibori et al. (J. Pharmacol. Exp. Therap. 241, 582-286,1987). Blood glucose is determined at time 0 and 40 min after the histamine injection. Test compounds are administered at 1.0 mg/kg ip 30 min before the histamine injection, and % inhibition refers to the capacity of the compounds to inhibit the histamine induced blood glucose rise.

| Structure (SMILES) | melting point | Inhibition of histamine induced paw oedema, % inhibition [1] | Inhibition of histamine induced hyperglycemia, % inhibition [2] |
| --- | --- | --- | --- |
| O=C(O)[C@@H]1CCCN(CCN2CCC(=C3c4ccccc4CSc4ccccc43)CC2)C1 (as salt: hydrochloride) | 127 to 130 °C | – | – |
| Cl.O=C(O)CCN1CCC(=C2c3ccccc3CSc3ccccc32)CC1 | 176 to 186 °C (dec.) | – | – |
| Cl.O=C(O)CCN1CCC(=C2c3ccccc3CCc3ccccc32)CC1 [Example 10, 3-(4-(10,11-Dihydro-5H-dibenzo[a,d]cyclohepten-5-ylidene)-1-piperidine)propionic acid hydrochloride] | – | 33% | 69% |
| Cl.O=C(O)CN1CCC(=C2c3ccccc3CSc3ccccc32)CC1 | 170 to 175 °C | – | – |
| Cl.O=C(O)CCN1CCN(C2c3ccccc3CCc3ccccc32)CC1 [Example 2, 3-(4-(10,11-Dihydro-5H-dibenzo[a,d]cyclohepten-5-yl)piperazin-1-yl)propionic acid hydrochloride] | – | 44% | – |
| O=C(O)C1CCCN(CCCN2CCC(=C3c4ccccc4CSc4ccccc43)CC2)C1 (stereo not shown) (as salt: hydrochloride) | 245 to 255 °C (dec.) | – | – |
